Experiments:
[1] = target: Fibroblast growth factor receptor 1 (Homo sapiens) (UniProt P11362); assay: FGFR1 SGC Tm panel (DSF); conditions: Compound concentration 20.0 uM
[2] = target: T1, Zinc finger and BTB domain-containing protein 24 (Homo sapiens) (UniProt O43167); conditions: SUD4, Compound concentration 1.0 uM
T1 sequence (whole entry): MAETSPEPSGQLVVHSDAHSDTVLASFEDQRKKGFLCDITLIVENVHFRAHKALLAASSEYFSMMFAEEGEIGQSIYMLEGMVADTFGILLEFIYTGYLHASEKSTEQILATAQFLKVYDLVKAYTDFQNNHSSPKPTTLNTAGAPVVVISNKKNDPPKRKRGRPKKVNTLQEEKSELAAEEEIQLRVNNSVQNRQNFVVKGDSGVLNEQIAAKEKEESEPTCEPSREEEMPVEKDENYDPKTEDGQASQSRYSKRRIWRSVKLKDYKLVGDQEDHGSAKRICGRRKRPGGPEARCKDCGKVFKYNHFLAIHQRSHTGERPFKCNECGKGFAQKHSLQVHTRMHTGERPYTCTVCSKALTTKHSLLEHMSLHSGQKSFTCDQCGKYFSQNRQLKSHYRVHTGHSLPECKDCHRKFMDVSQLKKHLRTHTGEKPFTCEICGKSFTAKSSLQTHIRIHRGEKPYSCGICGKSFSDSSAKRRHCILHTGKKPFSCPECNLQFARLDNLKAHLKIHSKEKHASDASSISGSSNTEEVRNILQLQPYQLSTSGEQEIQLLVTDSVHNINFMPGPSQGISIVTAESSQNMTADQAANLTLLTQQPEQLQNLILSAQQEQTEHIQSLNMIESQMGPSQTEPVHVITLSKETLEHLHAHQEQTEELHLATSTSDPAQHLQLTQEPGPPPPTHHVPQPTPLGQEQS

[3] = target: Zinc finger and BTB domain-containing protein 14 (Homo sapiens) (UniProt O43829); conditions: SUD4, Compound concentration 1.0 uM
[4] = target: Alpha-1A adrenergic receptor (Homo sapiens) (UniProt P35348); conditions: Compound concentration 10.0 uM
[5] = target: Alpha-2B adrenergic receptor (Homo sapiens) (UniProt P18089); conditions: Compound concentration 10.0 uM
[6] = target: T2, 5-hydroxytryptamine receptor 1D (Homo sapiens, UniProt P28221); assay: GPCRScan assay: inhibition of 5-HT1D; parameters: radioligand conc. used [nm] 1.0 – 2.0, parental cells HEKT
[7] = target: 5-hydroxytryptamine receptor 6 (Homo sapiens) (UniProt P50406); conditions: Compound concentration 10.0 uM
[8] = target: T2, 5-hydroxytryptamine receptor 1D; conditions: Compound concentration 10.0 uM
[9] = target: T3, Zinc finger protein 131 (Homo sapiens) (UniProt P52739); conditions: OCI-Ly1, Compound concentration 1.0 uM
T3 sequence (whole entry): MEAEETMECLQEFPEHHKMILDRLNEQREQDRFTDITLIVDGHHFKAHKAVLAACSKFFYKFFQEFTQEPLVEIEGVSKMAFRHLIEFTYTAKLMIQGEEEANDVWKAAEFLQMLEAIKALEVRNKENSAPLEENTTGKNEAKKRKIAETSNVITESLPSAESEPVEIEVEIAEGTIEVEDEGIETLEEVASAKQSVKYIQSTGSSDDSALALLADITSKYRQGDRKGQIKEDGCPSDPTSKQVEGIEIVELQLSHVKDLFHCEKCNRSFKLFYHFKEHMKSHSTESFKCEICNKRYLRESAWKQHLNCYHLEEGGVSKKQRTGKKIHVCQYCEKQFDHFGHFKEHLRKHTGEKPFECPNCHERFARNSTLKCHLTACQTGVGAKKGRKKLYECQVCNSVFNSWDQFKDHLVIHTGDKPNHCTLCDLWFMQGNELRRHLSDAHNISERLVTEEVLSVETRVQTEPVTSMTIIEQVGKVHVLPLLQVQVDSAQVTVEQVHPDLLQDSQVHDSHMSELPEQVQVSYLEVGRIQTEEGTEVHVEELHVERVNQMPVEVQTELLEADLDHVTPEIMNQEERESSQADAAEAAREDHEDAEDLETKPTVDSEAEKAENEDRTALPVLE

[10] = target: Alpha-1D adrenergic receptor (Homo sapiens) (UniProt P25100); conditions: Compound concentration 10.0 uM
[11] = target: Zinc finger and BTB domain-containing protein 17 (Homo sapiens) (UniProt Q13105); conditions: SUD4, Compound concentration 1.0 uM
[12] = target: Lymphokine-activated killer T-cell-originated protein kinase (Homo sapiens) (UniProt Q96KB5); assay: TOPK SGC Tm panel (DSF); conditions: Compound concentration 20.0 uM
[13] = target: Muscarinic acetylcholine receptor M3 (Homo sapiens) (UniProt P20309); conditions: Compound concentration 10.0 uM
[14] = target: Muscarinic acetylcholine receptor M4 (Homo sapiens) (UniProt P08173); conditions: Compound concentration 10.0 uM
[15] = target: Tyrosine-protein kinase Mer (Homo sapiens) (UniProt Q12866); assay: MERTK SGC Tm panel (DSF); conditions: Compound concentration 20.0 uM
[16] = target: T4, Transcriptional regulator Kaiso (Homo sapiens) (UniProt Q86T24); conditions: SUD4, Compound concentration 1.0 uM
T4 sequence (whole entry): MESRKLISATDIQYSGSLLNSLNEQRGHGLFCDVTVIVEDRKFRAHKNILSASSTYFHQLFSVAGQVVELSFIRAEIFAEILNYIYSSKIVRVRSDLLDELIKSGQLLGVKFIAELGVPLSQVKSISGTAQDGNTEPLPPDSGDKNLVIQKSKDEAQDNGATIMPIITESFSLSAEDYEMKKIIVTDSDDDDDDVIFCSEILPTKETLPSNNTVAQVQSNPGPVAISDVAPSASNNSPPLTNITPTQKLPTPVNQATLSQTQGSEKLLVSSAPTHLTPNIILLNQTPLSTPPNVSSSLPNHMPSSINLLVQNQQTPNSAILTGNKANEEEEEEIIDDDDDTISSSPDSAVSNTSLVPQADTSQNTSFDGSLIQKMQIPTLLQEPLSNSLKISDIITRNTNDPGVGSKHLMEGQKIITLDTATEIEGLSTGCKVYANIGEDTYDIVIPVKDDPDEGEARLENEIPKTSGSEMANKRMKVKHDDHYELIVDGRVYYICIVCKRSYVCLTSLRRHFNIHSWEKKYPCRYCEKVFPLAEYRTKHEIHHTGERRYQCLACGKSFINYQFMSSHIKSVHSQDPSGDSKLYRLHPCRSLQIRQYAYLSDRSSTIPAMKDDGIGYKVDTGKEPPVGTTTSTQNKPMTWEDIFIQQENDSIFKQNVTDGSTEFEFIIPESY

[17] = target: Dual specificity protein kinase CLK1 (Homo sapiens) (UniProt P49759); assay: CLK1 SGC Tm panel (DSF); conditions: Compound concentration 20.0 uM

T2 sequence (P28221 whole entry): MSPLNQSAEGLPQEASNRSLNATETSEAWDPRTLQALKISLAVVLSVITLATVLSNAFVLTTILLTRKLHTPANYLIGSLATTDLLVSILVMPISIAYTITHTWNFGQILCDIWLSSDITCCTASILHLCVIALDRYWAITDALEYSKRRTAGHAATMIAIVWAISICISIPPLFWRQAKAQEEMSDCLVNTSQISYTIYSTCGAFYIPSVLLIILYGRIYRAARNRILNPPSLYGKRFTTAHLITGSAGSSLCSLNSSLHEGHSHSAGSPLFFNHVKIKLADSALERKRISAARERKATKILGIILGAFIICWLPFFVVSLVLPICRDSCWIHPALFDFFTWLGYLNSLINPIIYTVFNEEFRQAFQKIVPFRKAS
Chain of Zinc finger and BTB domain-containing protein 17 (Homo sapiens) (Q13105 whole entry, the tested form may be a part): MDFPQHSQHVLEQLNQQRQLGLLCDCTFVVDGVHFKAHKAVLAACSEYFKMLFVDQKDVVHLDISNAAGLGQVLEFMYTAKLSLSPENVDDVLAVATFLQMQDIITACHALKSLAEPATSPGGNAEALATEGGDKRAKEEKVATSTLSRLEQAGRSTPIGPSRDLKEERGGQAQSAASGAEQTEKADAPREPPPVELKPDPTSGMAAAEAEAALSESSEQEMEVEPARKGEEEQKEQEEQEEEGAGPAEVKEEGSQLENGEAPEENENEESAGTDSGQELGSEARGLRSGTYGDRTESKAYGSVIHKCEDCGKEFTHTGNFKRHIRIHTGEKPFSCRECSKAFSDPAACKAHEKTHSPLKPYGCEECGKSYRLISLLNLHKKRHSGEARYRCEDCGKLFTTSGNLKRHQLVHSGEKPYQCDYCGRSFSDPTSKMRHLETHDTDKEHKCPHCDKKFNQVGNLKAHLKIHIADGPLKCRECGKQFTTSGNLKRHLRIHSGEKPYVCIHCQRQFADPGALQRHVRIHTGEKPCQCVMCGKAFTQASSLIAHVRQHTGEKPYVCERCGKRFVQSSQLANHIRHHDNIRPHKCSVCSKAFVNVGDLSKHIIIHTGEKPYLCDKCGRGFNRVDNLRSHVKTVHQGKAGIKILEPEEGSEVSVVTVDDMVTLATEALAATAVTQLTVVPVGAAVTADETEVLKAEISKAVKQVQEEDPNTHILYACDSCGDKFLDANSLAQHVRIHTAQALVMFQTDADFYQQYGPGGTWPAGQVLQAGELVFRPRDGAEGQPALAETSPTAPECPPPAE
Chain of Muscarinic acetylcholine receptor M3 (Homo sapiens) (P20309 whole entry, looked up): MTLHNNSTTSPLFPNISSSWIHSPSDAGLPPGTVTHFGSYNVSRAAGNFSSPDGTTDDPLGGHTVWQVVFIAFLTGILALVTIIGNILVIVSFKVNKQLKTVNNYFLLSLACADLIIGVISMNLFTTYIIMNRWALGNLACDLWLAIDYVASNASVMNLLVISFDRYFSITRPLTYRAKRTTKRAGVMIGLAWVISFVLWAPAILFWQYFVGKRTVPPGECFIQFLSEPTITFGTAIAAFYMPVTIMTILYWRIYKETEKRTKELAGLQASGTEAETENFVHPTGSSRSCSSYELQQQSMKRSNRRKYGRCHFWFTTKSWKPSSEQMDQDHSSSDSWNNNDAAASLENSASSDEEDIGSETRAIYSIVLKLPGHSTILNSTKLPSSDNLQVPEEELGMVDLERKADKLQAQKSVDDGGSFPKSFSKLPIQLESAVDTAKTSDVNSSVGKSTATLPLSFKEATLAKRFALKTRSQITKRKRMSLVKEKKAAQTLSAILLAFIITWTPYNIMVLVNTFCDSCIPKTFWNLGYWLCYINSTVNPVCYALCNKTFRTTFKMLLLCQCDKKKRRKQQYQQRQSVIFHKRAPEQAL
Chain of Fibroblast growth factor receptor 1 (Homo sapiens) (P11362 22-822 limits assumed): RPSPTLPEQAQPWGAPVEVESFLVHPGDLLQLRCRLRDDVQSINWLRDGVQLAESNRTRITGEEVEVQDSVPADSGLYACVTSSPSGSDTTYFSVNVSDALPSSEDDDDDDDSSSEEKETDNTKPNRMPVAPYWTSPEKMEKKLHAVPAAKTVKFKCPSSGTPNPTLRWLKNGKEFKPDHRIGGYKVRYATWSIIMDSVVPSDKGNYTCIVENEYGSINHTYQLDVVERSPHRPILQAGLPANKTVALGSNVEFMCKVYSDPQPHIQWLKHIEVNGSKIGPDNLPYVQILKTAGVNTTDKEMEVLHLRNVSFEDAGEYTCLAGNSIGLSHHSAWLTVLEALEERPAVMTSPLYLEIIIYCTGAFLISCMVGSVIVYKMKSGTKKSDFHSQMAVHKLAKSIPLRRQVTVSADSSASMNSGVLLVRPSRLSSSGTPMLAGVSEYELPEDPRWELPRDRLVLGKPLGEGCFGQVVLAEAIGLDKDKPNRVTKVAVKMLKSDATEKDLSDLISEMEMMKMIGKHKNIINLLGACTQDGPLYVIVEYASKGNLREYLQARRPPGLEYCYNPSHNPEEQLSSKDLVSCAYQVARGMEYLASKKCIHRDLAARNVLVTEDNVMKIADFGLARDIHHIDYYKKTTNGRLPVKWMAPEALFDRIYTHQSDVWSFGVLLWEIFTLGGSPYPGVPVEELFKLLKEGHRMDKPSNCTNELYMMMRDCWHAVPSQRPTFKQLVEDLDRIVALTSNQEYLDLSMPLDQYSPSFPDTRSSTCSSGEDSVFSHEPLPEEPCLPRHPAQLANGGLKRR
Chain of Lymphokine-activated killer T-cell-originated protein kinase (Homo sapiens) (Q96KB5 whole entry): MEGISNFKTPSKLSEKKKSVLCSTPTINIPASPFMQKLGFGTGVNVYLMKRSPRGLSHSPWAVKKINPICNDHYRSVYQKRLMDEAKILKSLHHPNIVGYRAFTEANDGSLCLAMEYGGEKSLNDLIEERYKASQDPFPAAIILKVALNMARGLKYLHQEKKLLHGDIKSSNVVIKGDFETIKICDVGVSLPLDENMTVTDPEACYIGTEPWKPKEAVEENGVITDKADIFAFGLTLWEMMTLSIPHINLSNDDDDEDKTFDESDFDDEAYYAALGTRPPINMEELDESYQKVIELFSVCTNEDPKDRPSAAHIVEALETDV
Chain of Tyrosine-protein kinase Mer (Homo sapiens) (Q12866 whole entry): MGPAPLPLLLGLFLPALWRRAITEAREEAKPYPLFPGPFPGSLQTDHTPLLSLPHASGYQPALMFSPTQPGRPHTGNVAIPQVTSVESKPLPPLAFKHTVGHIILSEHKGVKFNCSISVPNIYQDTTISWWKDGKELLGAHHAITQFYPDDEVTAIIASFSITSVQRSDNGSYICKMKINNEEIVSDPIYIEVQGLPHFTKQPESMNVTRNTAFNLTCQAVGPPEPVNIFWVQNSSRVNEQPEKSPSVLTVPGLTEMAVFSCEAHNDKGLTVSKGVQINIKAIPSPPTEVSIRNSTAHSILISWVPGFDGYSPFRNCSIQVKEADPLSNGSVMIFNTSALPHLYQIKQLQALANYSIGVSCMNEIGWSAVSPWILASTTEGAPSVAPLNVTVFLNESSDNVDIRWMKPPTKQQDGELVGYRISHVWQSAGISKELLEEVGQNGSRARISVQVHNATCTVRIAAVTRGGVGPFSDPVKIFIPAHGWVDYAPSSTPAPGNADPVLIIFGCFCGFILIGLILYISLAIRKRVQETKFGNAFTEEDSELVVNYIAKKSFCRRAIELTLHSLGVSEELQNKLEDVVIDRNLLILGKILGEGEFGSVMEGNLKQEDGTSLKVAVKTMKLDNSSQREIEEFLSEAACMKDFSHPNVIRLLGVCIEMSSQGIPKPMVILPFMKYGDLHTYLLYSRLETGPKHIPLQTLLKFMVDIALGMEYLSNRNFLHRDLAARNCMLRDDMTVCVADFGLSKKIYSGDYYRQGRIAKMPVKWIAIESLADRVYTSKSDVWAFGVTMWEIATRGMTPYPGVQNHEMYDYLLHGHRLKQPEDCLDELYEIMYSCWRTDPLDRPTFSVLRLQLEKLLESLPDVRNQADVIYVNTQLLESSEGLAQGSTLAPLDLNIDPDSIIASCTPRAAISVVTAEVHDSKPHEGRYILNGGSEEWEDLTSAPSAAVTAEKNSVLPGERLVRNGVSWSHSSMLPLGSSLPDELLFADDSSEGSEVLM
Chain of Muscarinic acetylcholine receptor M4 (Homo sapiens) (P08173 whole entry): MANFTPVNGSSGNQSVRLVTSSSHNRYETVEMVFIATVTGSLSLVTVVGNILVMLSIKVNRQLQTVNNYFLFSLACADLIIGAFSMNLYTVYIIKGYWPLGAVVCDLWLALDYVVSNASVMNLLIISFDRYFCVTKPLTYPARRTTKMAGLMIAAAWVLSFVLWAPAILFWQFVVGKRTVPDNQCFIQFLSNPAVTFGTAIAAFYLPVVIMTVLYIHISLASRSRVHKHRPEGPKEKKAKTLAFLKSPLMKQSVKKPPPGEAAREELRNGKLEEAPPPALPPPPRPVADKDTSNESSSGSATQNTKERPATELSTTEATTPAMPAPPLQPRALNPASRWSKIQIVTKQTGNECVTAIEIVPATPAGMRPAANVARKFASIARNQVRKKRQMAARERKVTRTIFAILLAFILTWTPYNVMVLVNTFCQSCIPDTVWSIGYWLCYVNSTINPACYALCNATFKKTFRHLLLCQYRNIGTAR
Chain of Alpha-2B adrenergic receptor (Homo sapiens) (P18089 whole entry): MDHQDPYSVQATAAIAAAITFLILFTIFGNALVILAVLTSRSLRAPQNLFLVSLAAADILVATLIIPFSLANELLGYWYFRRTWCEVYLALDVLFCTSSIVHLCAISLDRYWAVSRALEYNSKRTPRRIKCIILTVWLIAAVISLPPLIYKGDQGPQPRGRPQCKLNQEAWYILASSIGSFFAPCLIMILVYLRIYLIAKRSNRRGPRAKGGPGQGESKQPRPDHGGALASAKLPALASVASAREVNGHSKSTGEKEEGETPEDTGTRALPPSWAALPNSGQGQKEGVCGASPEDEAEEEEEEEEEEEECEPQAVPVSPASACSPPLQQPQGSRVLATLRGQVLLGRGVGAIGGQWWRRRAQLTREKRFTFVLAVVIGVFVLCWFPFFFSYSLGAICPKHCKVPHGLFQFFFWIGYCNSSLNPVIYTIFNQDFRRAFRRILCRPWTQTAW

Tm [1]: 50 °C
LogFC [2]: 0.00149
LogFC [3]: 0.0306
inhibition [4]: 7.7%
inhibition [5]: 7.28%
Ki [6]: 6.17 µM
inhibition [7]: 3.94%
inhibition [8]: 56.5%
LogFC [9]: -0.712
inhibition [10]: 16%
LogFC [11]: 0.0294
inhibition [13]: 12%
inhibition [14]: -2.86%
Tm [15]: 47 °C
LogFC [16]: 0.0744
Tm [17]: 36 °C
SMILES: C[C@@H]1CN(c2ncc(Cl)c(Nc3ccc4c(c3)n(CCC(C)(C)O)c(=O)n4C)n2)C[C@H](C)C1(F)F
Tm [12]: 43 °C
